# Legend:
# THP1 cells = assay: Combination drug screening, Cell Titer Glo, THP1 cells; conditions: THP1 cells; for Excess HSA Score: sum score, 10 × 10 dataset, 48 hours;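 on all read-outs here: luminescence read out in 1536-well plates seeded with 500 THP1 cells per well, each drug spanning a 10-point concentration range in the combination matrix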
# Excerpt: A smaller concentration indicates higher potency to synergize with Venetoclax. […] The numbers in each cell represent the % response (left) or the Delta Bliss score (right) at each given concentration combination.
# A smaller concentration indicates higher potency to synergize with azacitidine. […] The numbers in each cell represent the % response (left) or the Delta Bliss score (right) at each given concentration combination.
# (§1) This is a cell line that has the FLT3 ITD mutation but also the FLT3 D835Y kinase domain mutation. […] Excess HSA is a measure of synergy vs. additivity or antagonism, wherein a negative Excess HSA value is indicative of synergy.
# Briefly, 10 nL of compounds were acoustically dispensed into 1536-well white polystyrene tissue culture-treated plates with an Echo 550 acoustic liquid handler (Labcyte). MOLM14 (D835Y) or THP1 cells were then added to compound-containing plates at a density of 500-cells/well in 5 μL of medium. A 10-point custom concentration range was used for all listed drugs. […] 48h post compound addition, 3 μL of Cell Titer Glo (Promega) were added to each well and plates were incubated at room temperature for 15 minutes with the stainless-steel lid in place. Luminescence readings were taken using a Viewlux imager (PerkinElmer) with a 2 second exposure time per plate.
# MOLM14 (D835Y) cells = assay: Combination drug screening, Cell Titer Glo, MOLM14 (D835Y) cells; conditions: MOLM14(D835Y) cells; for Excess HSA Score: sum score, listed as compound in combination with Compound 106, 48 hours;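 on all read-outs here: MOLM14 cells with FLT3 ITD plus D835Y, 500 per well in 1536-well plates, 10-point dose ranges, luminescent viability after 48 h, negative Excess HSA indicates synergy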
# Description: Briefly, 10 nL of the compound shown below was acoustically dispensed into 1536-well white polystyrene tissue culture-treated plates with an Echo 550 acoustic liquid handler (Labcyte). Cells were then added to compound-containing plate at a density of 500-cells/well in 5 μL of medium. A 6-point or 10-point custom concentration range was used for all listed drugs. Plates were incubated for 48 hours at standard incubator conditions covered by a stainless steel gasketed lid to prevent evaporation. 48h post compound addition, 3 μL of Cell Titer Glo (Promega) were added to each well and plates were incubated at room temperature for 15 minutes with the stainless-steel lid in place. Luminescence readings were taken using a Viewlux imager (PerkinElmer) with a 2 second exposure time per plate.
# A smaller concentration indicates higher potency to synergize with Venetoclax.
# A smaller concentration indicates higher potency to synergize with azacitidine.
# as §1
# [1] = listed as compound in combination with CG-806 (a FLT3/BTK inhibitor)
# [2] = listed as compound in combination with Compound 45a
# [3] = listed as compound in combination with Compound 46a
# [4] = listed as compound in combination with Compound 47a
# [5] = listed as compound in combination with Compound 48a
# [6] = listed as compound in combination with Compound 102
# [7] = listed as compound in combination with Compound 106
# [8] = listed as compound in combination with Gilteritinib (a FLT3/AXL inhibitor)
# [9] = listed as compound in combination with PF-06650833 (an IRAK4 selective inhibitor)
# [10] = listed as compound in combination with Quizartinib (a FLT3/Kit/PDGFRa inhibitor)
# [11] = listed as compound in combination with emavusertib (CA-4948) (a FLT3/IRAK4 inhibitor)
# [12] = combination therapy of CG-806 (a FLT3/BTK inhibitor) and the named additional compound, 110 × 10 dataset
# [13] = combination therapy of Compound 45a and the named additional compound, 110 × 10 dataset
# [14] = combination therapy of Compound 46a and the named additional compound, 110 × 10 dataset
# [15] = combination therapy of Compound 47a and the named additional compound, 110 × 10 dataset
# [16] = combination therapy of Compound 48a and the named additional compound, 110 × 10 dataset
# [17] = combination therapy of Compound 102 and the named additional compound, 10 × 10 dataset
# [18] = combination therapy of Gilteritinib (a FLT3/AXL inhibitor) and the named additional compound, 110 × 10 dataset
# [19] = combination therapy of PF-06650833 (an IRAK4 selective inhibitor) and the named additional compound, 110 × 10 dataset
# [20] = combination therapy of Quizartinib (a FLT3/Kit/PDGFRa inhibitor) and the named additional compound, 110 × 10 dataset
# [21] = combination therapy of emavusertib (CA-4948) (a FLT3/IRAK4 inhibitor) and the named additional compound, 110 × 10 dataset
SMILES,Excess HSA Score (THP1 cells; [1]),Excess HSA Score (THP1 cells; [2]),Excess HSA Score (THP1 cells; [3]),Excess HSA Score (THP1 cells; [4]),Excess HSA Score (THP1 cells; [5]),Excess HSA Score (THP1 cells; [6]),Excess HSA Score (THP1 cells; [7]),Excess HSA Score (THP1 cells; [8]),Excess HSA Score (THP1 cells; [9]),Excess HSA Score (THP1 cells; [10]),Excess HSA Score (THP1 cells; [11]),Sum Excess HSA Score (MOLM14 (D835Y) cells; [12]),Sum Excess HSA Score (MOLM14 (D835Y) cells; [13]),Sum Excess HSA Score (MOLM14 (D835Y) cells; [14]),Sum Excess HSA Score (MOLM14 (D835Y) cells; [15]),Sum Excess HSA Score (MOLM14 (D835Y) cells; [16]),Sum Excess HSA Score (MOLM14 (D835Y) cells; [17]),Sum Excess HSA Score (MOLM14 (D835Y) cells; [18]),Sum Excess HSA Score (MOLM14 (D835Y) cells; [19]),Sum Excess HSA Score (MOLM14 (D835Y) cells; [20]),also measured
"COc1cc(F)ccc1-c1cc(Nc2cc(CS(C)(=N)=O)ccn2)ncc1F (single isomer, unassigned; (+)) [(+)-BAY-1251152, BAY1251152]",−199.4,−860.7,−263.4,−21.17,97,−265.1,−427.1,−656.6,−758.9,454.7,−51.35,1704,−157.4,−133.4976,−727.7,−215.2,−20.6,362.2497,−386,−511.9,Comments (THP1 cells; combination with PF-06650833): Synergistic (a negative Excess HSA value is indicative of synergy); Sum Excess HSA Score (MOLM14 (D835Y) cells; [21]): 274; Excess HSA Score (MOLM14 (D835Y) cells; 10 × 10 dataset): −865.6
"CC(C)[C@@H](CS(=O)(=O)C(C)C)N1C(=O)[C@@](C)(CC(=O)O)C[C@H](c2cccc(Cl)c2)[C@H]1c1ccc(Cl)cc1 [AMG-232, navtemadlin]",917.1,441,229.7,364.2,420.6,−171.2,394.3,24.49,−179,−91.44,125.5,−536.7,−165.5,−654.7,−325.2,224.1,−197.3,−113,−1066,−1109,Sum Excess HSA Score (MOLM14 (D835Y) cells; [21]): −373.7; Excess HSA Score (MOLM14 (D835Y) cells; 10 × 10 dataset): −640.2
"NC1(C(=O)N[C@@H](CCO)c2ccc(Cl)cc2)CCN(c2nc[nH]c3nccc2-3)CC1 [AZD-5363, capivasertib]",−189.8,−1027.6539,−276.8,124.8,−732.6,−198.6,−134.3,989.6,−649.7,17.2569,−1144.9723,−2332,−239.9,637.8,−894,−939.6,−439.3,−966.8597,47.56,−1637,Comments (THP1 cells; combination with Compound 48a): Synergistic (a negative Excess HSA value is indicative of synergy); Comments (THP1 cells; combination with emavusertib (CA-4948)): Synergistic (a negative Excess HSA value is indicative of synergy); Comments (synergistic / antagonistic) (MOLM14 (D835Y) cells; [12]): Synergistic (a negative Excess HSA value is indicative of synergy); Sum Excess HSA Score (MOLM14 (D835Y) cells; [21]): −850.1; Excess HSA Score (MOLM14 (D835Y) cells; 10 × 10 dataset): −105.2
"COCC1(CO)C(=O)C2CCN1CC2 (stereo not shown) [Eprenetapopt/APR-246, APR-246 (Eprenetapopt)]",300.5,−629.2,603.9,−14.7,−33.1,171.5,268,365.9,−225.6,437.691,482.6,−271.7,284.5,−183.2,366.1,−140.8,−55.14,647.6,−566,−652.9,Sum Excess HSA Score (MOLM14 (D835Y) cells; [21]): 504.1; Excess HSA Score (MOLM14 (D835Y) cells; 10 × 10 dataset): −43.15
"N#Cc1ccnc(N2C(=O)CC[C@H]2C(=O)N(c2cncc(F)c2)[C@H](C(=O)NC2CC(F)(F)C2)c2ccccc2Cl)c1 [Ivosidenib, ivosidenib]",93.96,−296.7,−42.9834,−122.1,−0.4511,−215.7606,354.6,338,−152.4,177.8,285,−199.6,259.8,−118.7,218.5,−299.6,−713.3,347.6,−172.4,244.1367,Sum Excess HSA Score (MOLM14 (D835Y) cells; [21]): 35.12; Excess HSA Score (MOLM14 (D835Y) cells; 10 × 10 dataset): 28.0568
Nc1cccc2c1CN(C1CCC(=O)NC1=O)C2=O (stereo not shown) [Lenalidomide],534,−245.1,533.2,188.9,−51.13,12.2,386.8,355,74.4868,472.5204,1167,141.5,784.7,12.1,868.6,405.4,59.07,527.6728,−429.8,565.7343,Sum Excess HSA Score (MOLM14 (D835Y) cells; [21]): 390.3; Excess HSA Score (MOLM14 (D835Y) cells; 10 × 10 dataset): 754.6
CC(=O)c1c(C)c2cnc(Nc3ccc(N4CCNCC4)cn3)nc2n(C2CCCC2)c1=O [Palbociclib],−368.3,−912.2,−907.6,−166.9,−166.7,−116.5,−590.5,−826.9,−610,−794.7,190.2,−246,−715.3,−844.8,−616.3,−583.3,−537.2,−576.9,94.98,−1120,Comments (THP1 cells; combination with Quizartinib): Synergistic (a negative Excess HSA value is indicative of synergy); Sum Excess HSA Score (MOLM14 (D835Y) cells; [21]): −557.8; Excess HSA Score (MOLM14 (D835Y) cells; 10 × 10 dataset): −252.8
"C[C@]12C=CC(=O)C=C1CC[C@@H]1[C@@H]2[C@@H](O)C[C@@]2(C)[C@H]1CC[C@]2(O)C(=O)CO [Prednisolone, prednisolone]",335.9,438.5,174.9,134.6,511.8,26.91,274.3,−110.9078,−254.8,−81.1,70.05,−218,−106.5,−52.71,−58.8974,−339.3,−260.2,−583.8,−431.6,213.4,Sum Excess HSA Score (MOLM14 (D835Y) cells; [21]): −4.3456; Excess HSA Score (MOLM14 (D835Y) cells; 10 × 10 dataset): −5.273

# — patent US20250368648A1, “MULTI-CYCLIC IRAK AND FLT3 INHIBITING COMPOUNDS AND USES THEREOF” (CHILDREN'S HOSPITAL MEDICAL CENTER, priority 2022, published 2025)
